According to US10323000B2, “Indole derivatives and their use in neurodegenerative diseases” (priority 2014, dated 2019):
Read-outs that look alike come from different tables or passages of the source.

Columns and labels:
[1] = molecular target: P2X7 (IL-1β release from THP-1 cells) (Homo sapiens (Human), UniProt Q99572); test: IL-1β release assay; assay type: cell-based
In short: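 THP-1 cells were differentiated with PMA 0.5 μM and primed 4 h with LPS 10 ng/ml. They were then pre-incubated 20 min with compound at 37° C and stimulated 30 min with BzATP 0.8 mM. Mature IL-1β released into the supernatant was quantified by sandwich ELISA.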

[2] = molecular target: human P2X7 receptor (Homo sapiens (Human), UniProt Q99572); test: Pore permeation assay (YO PRO dye uptake); assay type: cell-based
[3] = THP-1 cells, LPS primed, 0.8 mM BzATP, mature IL-1β by sandwich ELISA, read-out: hTHP-1/IL-ib IC50
[4] = HEK293 transfected with human P2X7, BzATP 10 uM, YO PRO dye uptake, read-out: hP2X7 IC50

Chain of P2X7 (IL-1β release from THP-1 cells) (Q99572 whole entry): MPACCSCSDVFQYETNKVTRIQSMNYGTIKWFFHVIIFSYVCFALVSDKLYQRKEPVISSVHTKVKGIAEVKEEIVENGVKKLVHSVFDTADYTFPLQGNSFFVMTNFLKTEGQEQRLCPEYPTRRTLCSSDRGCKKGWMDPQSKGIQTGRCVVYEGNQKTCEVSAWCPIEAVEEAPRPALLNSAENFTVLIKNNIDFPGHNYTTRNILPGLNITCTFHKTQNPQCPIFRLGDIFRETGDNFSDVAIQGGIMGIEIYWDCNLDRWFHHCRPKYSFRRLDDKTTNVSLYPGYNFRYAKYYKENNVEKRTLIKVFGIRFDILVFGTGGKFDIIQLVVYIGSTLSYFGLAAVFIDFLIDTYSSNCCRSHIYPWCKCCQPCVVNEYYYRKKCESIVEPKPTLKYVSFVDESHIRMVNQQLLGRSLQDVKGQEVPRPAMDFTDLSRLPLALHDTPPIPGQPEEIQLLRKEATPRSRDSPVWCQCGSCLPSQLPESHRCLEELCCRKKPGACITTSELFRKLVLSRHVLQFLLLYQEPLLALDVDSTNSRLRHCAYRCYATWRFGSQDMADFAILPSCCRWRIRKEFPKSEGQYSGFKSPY
Chain of human P2X7 receptor (Q99572 whole entry): as above

Row | SMILES | IC50 [1] [nM] | IC50 [2] [nM] | IC50 [1, 3] [nM] | IC50 [2, 4] [nM]
1 | O=C(NCC1CCC(F)(F)CC1)c1cn(C2CN(C3CC3)C2)c2cccc(Cl)c12 [Compound 171, 4-chloro-1-(1-cyclopropylazetidin-3-yl)-N-((4,4-difluorocyclohexyl)methyl)-1H-indole-3-carboxamide] | 500 to 999 | 101 to 500 | – | –
2 | O=C(NCC1CCC(F)(F)CC1)c1cn(CC(=O)N2CCOCC2)c2cccc(Cl)c12 [Compound 190, 4-Chloro-1-(2-morpholin-4-yl-2-oxo-ethyl)-1H-indole-3-carboxylic acid (4,4-difluoro-cyclohexylmethyl)-amide] | – | – | 101 to 500 | 101 to 500
3 | O=C(NCC1(O)CCC(F)(F)CC1)c1cn(CC2CCCCO2)c2cccc(Cl)c12 (stereo not drawn) [Compound 166, 4-chloro-N-((4,4-difluoro-1-hydroxycyclohexyl)methyl)-1-((tetrahydro-2H-pyran-2-yl)methyl)-1H-indole-3-carboxamide] | 10 to 100 | 10 to 100 | – | –
4 | COCCn1cc(C(=O)NCC2(O)CCC(F)(F)CC2)c2c(Cl)cccc21 [Compound 40, 4-chloro-N-((4,4-difluoro-1-hydroxycyclohexyl)methyl)-1-(2-methoxyethyl)-1H-indole-3-carboxamide] | 10 to 100 | 10 to 100 | – | –
5 | C[C@H]1CCC[C@@](O)(CNC(=O)c2cn(C3COC3)c3cccc(Cl)c23)C1 [Compound 90, 4-chloro-N-(((1S,3S)-1-hydroxy-3-methylcyclohexyl)methyl)-1-(oxetan-3-yl)-1H-indole-3-carboxamide] | 10 to 100 | – | – | < 10
6 | CN(C)C(=O)Cn1cc(C(=O)NCC2(O)CCC(F)(F)CC2)c2c(Cl)cccc21 [Compound 205, 4-Chloro-1-dimethylcarbamoylmethyl-1H-indole-3-carboxylic acid (4,4-difluoro-1-hydroxy-cyclohexylmethyl)-amide] | 10 to 100 | – | – | < 10
7 | CN1C(=O)CC[C@@H]1Cn1cc(C(=O)NCC2CCC(F)(F)CC2)c2c(Cl)cccc21 [Compound 182, (R)-4-chloro-N-((4,4-difluorocyclohexyl)methyl)-1-((1-methyl-5-oxopyrrolidin-2-yl)methyl)-1H-indole-3-carboxamide] | 10 to 100 | 10 to 100 | – | –
8 | O=C(NCC1(O)CCCC(F)(F)C1)c1cn(CCN2CCCC2)c2cccc(Cl)c12 (stereo not drawn) [Compound 178, 4-chloro-N-((3,3-difluoro-1-hydroxycyclohexyl)methyl)-1-(2-(pyrrolidin-1-yl)ethyl)-1H-indole-3-carboxamide] | 10 to 100 | 10 to 100 | – | –
9 | CC1(Cn2cc(C(=O)NCC3CCC(F)(F)CC3)c3c(Cl)cccc32)CCN1 (stereo not drawn) [Compound 152, 4-chloro-N-((4,4-difluorocyclohexyl)methyl)-1-((2-methylazetidin-2-yl)methyl)-1H-indole-3-carboxamide] | 500 to 999 | 10 to 100 | – | –
10 | COCCn1cc(C(=O)NCC2(c3ccc(C(F)(F)F)cc3)CCOCC2)c2c(Cl)cccc21 [Compound 38] | 101 to 500 | 10 to 100 | – | –
11 | O=C(NC[C@@]1(O)CCCC(F)(F)C1)c1cn(CCN2CCCC2=O)c2cccc(Cl)c12 [Compound 186, (R)-4-chloro-N-((3,3-difluoro-1-hydroxycyclohexyl)methyl)-1-(2-(2-oxopyrrolidin-1-yl)ethyl)-1H-indole-3-carboxamide] | – | – | > 1000 | > 1000
12 | O=C(NCC1CCC(F)(F)CC1)c1cn(CC2CCCNC2)c2cccc(Cl)c12 (stereo not drawn) [Compound 174, 4-chloro-N-((4,4-difluorocyclohexyl)methyl)-1-(piperidin-3-ylmethyl)-1H-indole-3-carboxamide] | 10 to 100 | 10 to 100 | – | –
